Experimental data: the supplement of paper PMC10307832

What was measured:
Assay in all cases: relative viability (nuclei count vs DMSO), 5 days (fraction); higher = more cells survive
[1] = compound: C1=CC=C(C(=C1)C2=CC=C(C=C2)C3=CSC4=C3C(=C(C(=O)N4)C#N)O)O + CS(=O)(=O)CCNCc1ccc(-c2ccc3ncnc(Nc4ccc(OCc5cccc(F)c5)c(Cl)c4)c3c2)o1 [Lapatinib] (partner 2 µM)
In short: (§1)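 Five library-drug doses in √10 steps were combined with a fixed anchor-drug dose, or a single drug was given alone, by pin tool to lung cancer cell lines in 1536-well plates the day after seeding. Nuclei were stained and counted after 5 days. Relative viability is the nuclei count in treated wells over that in vehicle wells, taken as the median of duplicate plates.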

[2] = compound: C1=CC=C(C(=C1)C2=CC=C(C=C2)C3=CSC4=C3C(=C(C(=O)N4)C#N)O)O + COc1cc2c(Oc3ccc(NC(=O)C4(C(=O)Nc5ccc(F)cc5)CC4)cc3F)ccnc2cc1OCCCN1CCOCC1 [Foretinib] (partner 0.25 µM)
In short: as §1

TGX 221 + Decitabine = compound: CC1=CN2C(=O)C=C(N=C2C(=C1)C(C)NC3=CC=CC=C3)N4CCOCC4 [TGX 221] + Nc1ncn([C@H]2C[C@H](O)[C@@H](CO)O2)c(=O)n1 [Decitabine] (partner 2 µM)
In short: as §1

TGX 221 + Tozasertib = compound: CC1=CN2C(=O)C=C(N=C2C(=C1)C(C)NC3=CC=CC=C3)N4CCOCC4 [TGX 221] + Cc1cc(Nc2cc(N3CCN(C)CC3)nc(Sc3ccc(NC(=O)C4CC4)cc3)n2)n[nH]1 [Tozasertib] (partner 0.1 µM)
In short: as §1

Cell Line	relative viability ([1]; first compound 0.08 µM)	relative viability ([1]; first compound 0.253 µM)	relative viability ([1]; first compound 0.8 µM)	relative viability ([1]; first compound 2.53 µM)	relative viability ([1]; first compound 8 µM)	relative viability ([2]; first compound 0.08 µM)	relative viability ([2]; first compound 0.253 µM)	relative viability ([2]; first compound 0.8 µM)	relative viability ([2]; first compound 2.53 µM)	relative viability ([2]; first compound 8 µM)	relative viability (TGX 221 + Decitabine; first compound 0.253 µM)	relative viability (TGX 221 + Decitabine; first compound 0.8 µM)	relative viability (TGX 221 + Decitabine; first compound 2.53 µM)	relative viability (TGX 221 + Decitabine; first compound 8 µM)	relative viability (TGX 221 + Tozasertib; first compound 0.08 µM)	relative viability (TGX 221 + Tozasertib; first compound 0.253 µM)	relative viability (TGX 221 + Tozasertib; first compound 0.8 µM)	relative viability (TGX 221 + Tozasertib; first compound 2.53 µM)	relative viability (TGX 221 + Tozasertib; first compound 8 µM)	relative viability (TGX 221 + Decitabine; first compound 0.08 µM)
NCI-H1944	0.69	0.853	0.883	0.67	0.788	0.88	0.863	0.987	0.935	0.904	0.449	0.442	0.443	0.389	0.237	0.223	0.241	0.244	0.2	
201T	0.979	1.03	1.01	0.849	1.12		1.12	1.23	0.988	0.954	0.85	0.844	0.871	0.873	0.915	0.933	0.955	0.833	0.808	0.831
NCI-H647	0.447	1.2	1.11	1.16	0.871	1.21	1.22	1.32	1.41	0.963	0.406	0.385	0.355	0.384	0.284	0.219	0.312	0.285	0.122	0.288
PC-3 [JPC-3]	0.488	0.556	0.479	0.441	0.472	1.05	1.01	1.02	1.05	0.995	0.802	0.826	0.815	0.898	0.822	0.913	0.838	0.856	0.833	0.749
NCI-H2126	0.737	0.748	0.728	0.766	0.834	1.41	1.22	1.43	1.15	1.01	0.567	0.633	0.55	0.554	0.826	0.886	0.797	0.768	0.756	0.568
HCC-15	0.702	0.918	0.897	0.962	0.783	0.996	1.1	1.13	1.12	0.898	0.648	0.636	0.591	0.709	0.438	0.463	0.407	0.323	0.237	0.699
NCI-H2085	0.608	0.841	0.677	0.685	0.671	1.05	0.9	0.958	0.852	0.797	0.524	0.548	0.414	0.451	0.792	0.729	0.598	0.541	0.427	0.59
LOU-NH91	0.751	0.807	0.788	0.601	0.738	0.942	0.96	0.92	0.914	0.868	0.763	0.785	0.802	0.788	0.713	0.653	0.697	0.675	0.562	0.821
